Counter-ions that a name gives are not always drawn.

By melting point is commonly meant the temperature, or range, at which the solid turns liquid. In turn, `Cc1ccc2[nH]c(=O)n(CCCN3C4CCC3CN(c3ccc(Cl)cc3)C4)c(=O)c2c1` (as salt: hydrochloride) yielded a melting point of over 300 °C.
In the case of `O=c1[nH]c2c(Cl)cccc2c(=O)n1CCCN1C2CCC1CN(c1ccc(Cl)cc1)C2` (as salt: maleate), the melting point is 186 to 188 °C.
`Cc1ccc(N2CC3CCC(C2)N3CCCn2c(=O)[nH]c3c(Cl)cccc3c2=O)c(C)c1` (as salt: maleate): the melting point lay within 217 to 219 °C.
`O=c1[nH]c2c(Cl)cccc2c(=O)n1CCCN1C2CCC1CN(c1ccc(Cl)c(Cl)c1)C2` (as salt: maleate) displayed a melting point of 205 to 207 °C.
For `O=c1[nH]c2ccccc2c(=O)n1CCCN1C2CCC1CN(c1ccc(Cl)c(Cl)c1)C2` (as salt: maleate), the melting point was 105 to 108 °C (dec.).
In turn, `O=c1[nH]c2c(Cl)cccc2c(=O)n1CCCN1C2CCC1CN(c1ccc(F)cc1)C2` (as salt: maleate) yielded a melting point of 173 to 175 °C.
In turn, `O=c1[nH]c2ccccc2c(=O)n1CCCN1C2CCC1CN(c1ccc(F)cc1)C2` (as salt: maleate) gave a melting point of 70 to 74 °C.
Molecule `O=c1[nH]c2c(Cl)cccc2c(=O)n1CCCN1C2CCC1CN(c1ccc(C(F)(F)F)cc1)C2` (as salt: maleate) showed a melting point of 205 to 207 °C.
Under `O=c1[nH]c2c(Cl)cccc2c(=O)n1CCCCN1C2CCC1CN(c1ccc(Cl)cc1)C2` (as salt: maleate) stands 235 to 238 °C; under `O=c1[nH]c2ccccc2c(=O)n1CCCCN1C2CCC1CN(c1ccc(Cl)cc1)C2` (as salt: maleate), 187 to 189 °C.
In the case of `Cc1ccc(N2CC3CCC2CN3CCCn2c(=O)[nH]c3c(Cl)cccc3c2=O)c(C)c1` (stereo not shown) (as salt: maleate), the melting point lay within 149 to 151 °C.
In turn, `O=c1[nH]c2c(Cl)cccc2c(=O)n1CCCN1CC2CC1CN2c1ccc(Cl)cc1` (stereo not shown) (as salt: maleate) [Example 41, 8-CHLORO-3-{3-[5-(4-CHLORO-PHENYL)-2,5-DIAZA-BICYCLO[2.2.1]HEPT-2-YL]-PROPYL}-1H-QUINAZOLINE-2,4-DIONE] came in with a melting point of 205 to 207 °C.
Molecule `O=c1[nH]c2c(Cl)cccc2c(=O)n1CCCN1CC2CC1CN2c1cccc(F)c1` (stereo not shown) (as salt: maleate) [Example 42, 8-CHLORO-3-{3-[5-(3-FLUORO-PHENYL)-2,5-DIAZA-BICYCLO[2.2.1]HEPT-2-YL]-PROPYL}-1H-QUINAZOLINE-2,4-DIONE] registered a melting point of 168 to 170 °C.
In the case of `O=c1[nH]c2c(Cl)cccc2c(=O)n1CCCN1CC2CCC1CN2c1ccc(F)cc1` (stereo not shown) (as salt: maleate) [Example 46, 8-CHLORO-3-{3-[5-(4-FLUORO-PHENYL)-2,5-DIAZA-BICYCLO[2.2.2]OCT-2-YL]-PROPYL}-1H-QUINAZOLINE-2,4-DIONE] it was 186 to 188 °C; in that of `O=c1[nH]c2c(Cl)cccc2c(=O)n1CCCN1CC2CCC1CN2c1ccc(Cl)c(Cl)c1` (stereo not shown) (as salt: maleate) [Example 48, 8-CHLORO-3-{3-[5-(3,4-DICHLORO-PHENYL)-2,5-DIAZA-BICYCLO[2.2.2]OCT-2-YL]-PROPYL}-1H-QUINAZOLINE-2,4-DIONE], 68 to 73 °C (dec.); in that of `O=c1[nH]c2ccccc2c(=O)n1CCCN1CC2CCC1CN2c1ccc(F)cc1` (stereo not shown) (as salt: maleate) [Example 49, 3-{3-[5-(4-FLUORO-PHENYL)-2,5-DIAZA-BICYCLO[2.2.2]OCT-2-YL]-PROPYL}-1H-QUINAZOLINE-2,4-DIONE], 95 to 98 °C (dec.).

The values are drawn from patent publication US6552015B2, “Azabicycloalkane derivatives and therapeutic uses thereof” (Pfizer Inc., priority 2000, dated 2003).
